Data set [1] concerns red blood cells (RBCs). The experiment in a line: Hemolysis assay with synthetic peptides on purified RBCs. The class given is cell-based, human. To be noted: 37 °C; for hemolysis by the P7 derivative alone: 2 µM. The procedure:
RBCs were purified from whole blood of healthy volunteers. Blood was collected in tubes containing EDTA-K3 as an anticoagulant (approximately 9 mL/tube). To separate RBCs from white blood cells (WBCs) and plasma, three washes were performed by centrifugation (2000× g for 10 min) and subsequent re-suspension to reach 9 mL. First, the RBCs were resuspended in Dulbecco′s Phosphate Buffered Saline (DPBS) + 2% heat inactivated fetal bovine serum, then in pure DPBS, and eventually in RPMI (for assays with live candida) or again DPBS (for assays with peptides). After each centrifugation step, care was taken to remove as many WBCs as possible from the central buffy layer. A hemocytometer (Auto Hematology Analyzer BC-5300 Vet (Mindray, Shenzhen, China)) was used to verify that the WBC count was negligible ([…]) and to determine the RBC concentration. This was then adjusted to 5 × 10^8 cells/mL, in the respective media or buffer.
Peptides were purchased from two different suppliers, namely Proteogenix (Strasbourg, France) and Peptide Protein Research Ltd. (Southampton, UK). Stock solutions were prepared in pure water at a concentration of 1.4 mM, then aliquoted and stored at −20 °C. […] Working solutions were then prepared in the relative buffer at the final concentration indicated for each assay.
To assess the hemolytic potential of C. albicans strains, RBCs and fungal cells were mixed in a 1:1 ratio (5 × 10^7 each, in a final volume of 600 µL) in a 2 mL plastic test tube (screw cap). Every condition was performed in duplicates (technical replicates) and with at least three different donors (biological replicates). Test tubes were then incubated horizontally at 50 rpms, 37 °C, for 24 h. To assess the hemolytic potential of peptides, 10^7 RBCs were incubated with the relevant peptide at the indicated final concentration in a total volume of 150 µL, for 1 h at 37 °C, in a 96-well PCR plate. After incubation, samples were centrifuged (2000× g for 3 min) and 100 µL of supernatant was transferred to a fresh 96-well plate to measure hemoglobin absorbance at 414 nm. Hemolysis was defined as the absorbance of the sample relative to the absorbance of the full lysis control sample (RBCs incubated with pure water), following subtraction of the absorbance of the vehicle control (RBCs incubated with media or buffer only).

In data set [2] the test system is candidalysin-induced hemolysis of RBCs. The data set can be described thus: Protection of RBCs from candidalysin-induced lysis by purinergic receptor antagonist. To be noted: candidalysin 16 µM, increasing concentrations of PPADS, 1 h, 37 °C. The class given is cell-based, human. As to the method: Figure 5 The purinergic receptor antagonist pyridoxal-phosphate-6-azophenyl-2′,4′-disulfonic acid (PPADS) protects from candidalysin-induced hemolysis via a purinergic receptor-independent mechanism. (a) Purified RBCs were incubated with candidalysin (16 µM) and increasing concentrations of PPADS, for 1 h at 37 °C. Hemolysis was quantified by measuring the absorbance of sample’s supernatant at 414 nm, and plotted relative to the full lysis control sample (RBCs incubated with pure water and the same amount of PPADS), following subtraction of the relative vehicle control (containing the same amount of PPADS). […] Permeabilization was measured as kinetic changes in conductance of tethered lipid membranes. […]
To assess the hemolytic potential of C. albicans strains, RBCs and fungal cells were mixed in a 1:1 ratio (5 × 10^7 each, in a final volume of 600 µL) in a 2 mL plastic test tube (screw cap). […] After incubation, samples were centrifuged (2000× g for 3 min) and 100 µL of supernatant was transferred to a fresh 96-well plate to measure hemoglobin absorbance at 414 nm. Hemolysis was defined as the absorbance of the sample relative to the absorbance of the full lysis control sample (RBCs incubated with pure water), following subtraction of the absorbance of the vehicle control (RBCs incubated with media or buffer only).

The nature of data set [3]: Membrane permeabilization by candidalysin, tethered bilayer lipid membranes (conductance). To be noted: membranes without receptors, candidalysin 5, 10, 20 µM, 37 °C. The procedure:
Figure 5 The purinergic receptor antagonist pyridoxal-phosphate-6-azophenyl-2′,4′-disulfonic acid (PPADS) protects from candidalysin-induced hemolysis via a purinergic receptor-independent mechanism. (a) Purified RBCs were incubated with candidalysin (16 µM) and increasing concentrations of PPADS, for 1 h at 37 °C. Hemolysis was quantified by measuring the absorbance of sample’s supernatant at 414 nm, and plotted relative to the full lysis control sample (RBCs incubated with pure water and the same amount of PPADS), following subtraction of the relative vehicle control (containing the same amount of PPADS). Each data point on the graph represents a different donor (average of 2 technical replicates). […] Permeabilization was measured as kinetic changes in conductance of tethered lipid membranes.
Tethered bilayer lipid membranes with 10% tethering lipids and 90% spacer lipids (T10 slides) were formed using the solvent exchange technique according to the manufacturer’s instructions (SDx Tethered Membranes Pty Ltd., Sydney, Australia). […] After rinsing 3× with 100 µL buffer, the conductance and capacitance of the membranes were measured for 20 min before injection of different concentrations of PPADS to the final concentrations in the individual channels as shown. […] Signals were measured using the tethaPod (SDx Tethered Membranes Pty Ltd., Sydney, Australia).

Data set [4] deals with epithelial cells. To be noted: cited from earlier work. The text has this: Candidalysin is generated from the longer polyprotein Ece1, which is processed by the Golgi-located Kex2 protease into eight peptides with C-terminal lysine–arginine (KR) residues. It was subsequently shown that a second processing event occurs by another Golgi-located protease, Kex1 [5, 11] which produces mature candidalysin by removing the C-terminal arginine from P3 [5, 11]. Peptides deriving from a Kex2-only processing are secreted, albeit at lower levels than mature candidalysin [5, 11].

For the compound `CC[C@H](C)[C@H](NC(=O)[C@H](CC(C)C)NC(=O)[C@H](CCC(N)=O)NC(=O)[C@@H]1CCCN1C(=O)[C@H](CC(C)C)NC(=O)[C@H](CCCNC(=N)N)NC(=O)[C@H](CCC(N)=O)NC(=O)[C@H](CC(C)C)NC(=O)[C@H](CC(C)C)NC(=O)[C@H](CCC(=O)O)NC(=O)[C@H](CC(=O)O)NC(=O)[C@H](CC(C)C)NC(=O)[C@H](Cc1ccccc1)NC(=O)[C@H](CC(=O)O)NC(=O)[C@H](CCC(=O)O)NC(=O)[C@H](CC(C)C)NC(=O)CNC(=O)[C@@H](N)CC(=O)O)C(=O)N[C@H](C(=O)N[C@@H](CCCNC(=N)N)C(=O)N[C@@H](CO)C(=O)N[C@@H](C)C(=O)N[C@@H](CCC(=O)O)C(=O)N[C@@H](CO)C(=O)N[C@@H](C)C(=O)N[C@@H](CC(C)C)C(=O)N[C@@H](CCCCN)C(=O)N[C@@H](CC(=O)O)C(=O)N[C@@H](CO)C(=O)N[C@@H](CCC(N)=O)C(=O)N1CCC[C@H]1C(=O)N[C@H](C(=O)N[C@@H](CCCCN)C(=O)O)C(C)C)[C@@H](C)O` [P7K], in data set [1] (1 h), the “hemolysis by the P7 derivative alone” value is reported as “no effect”.

With `Cc1nc(N=Nc2ccc(S(=O)(=O)O)cc2S(=O)(=O)O)c(COP(=O)(O)O)c(C=O)c1O` [PPADS, pyridoxal-phosphate-6-azophenyl-2′,4′-disulfonic acid], in data set [2], the “effect on candidalysin-induced hemolysis” value is on record as “reduced”. In addition, the “effect on permeabilization of artificial membranes by candidalysin” value in data set [3] was “able to inhibit permeabilization”.

For candidalysin, the “cytolytic activity against epithelial cells” value in data set [4] is reported as “have cytolytic activity”. In data set [1] (100 mM EDTA, peptide 9 µM (Proteogenix), 1 h), the “reduction of hemolytic potential in the presence of EDTA” value is listed as 4.2 fold. The “hemolytic activity compared with P3” value in data set [1] (all tested concentrations (1–8 µM), time course) is “clearly less hemolytic than P3”. Also, in data set [1] (pH 5 to 8, buffered HBSS, peptide 9 µM, 1 h), the “effect of pH on lysis efficiency” value is on record as “Only a minimal difference”. For the same compound, in data set [1] (peptide 9 µM, EDTA then MgCl2 up to 100 mM, 1 h), the “effect of adding excess Mg2+ ions (MgCl2) to cells pre-treated with EDTA on cytotoxicity” value is reported as “restored the cytotoxicity”. For the same compound, the “peptide concentration at and above which almost full RBC lysis was observed at the earliest time point” value in data set [1] (time course, 5 min incubation, range 1–8 µM, mean of 4 donors) was at least 4 µM.

`CC[C@H](C)[C@H](NC(=O)[C@H](CC(C)C)NC(=O)[C@H](CCC(N)=O)NC(=O)[C@@H]1CCCN1C(=O)[C@H](CC(C)C)NC(=O)[C@H](CCCNC(=N)N)NC(=O)[C@H](CCC(N)=O)NC(=O)[C@H](CC(C)C)NC(=O)[C@H](CC(C)C)NC(=O)[C@H](CCC(=O)O)NC(=O)[C@H](CC(=O)O)NC(=O)[C@H](CC(C)C)NC(=O)[C@H](Cc1ccccc1)NC(=O)[C@H](CC(=O)O)NC(=O)[C@H](CCC(=O)O)NC(=O)[C@H](CC(C)C)NC(=O)CNC(=O)[C@@H](N)CC(=O)O)C(=O)N[C@H](C(=O)O)[C@@H](C)O` [P7a]: the “hemolysis by the P7 derivative alone” value in data set [1] (1 h) is “low-level cytolytic activity”.

(Values after article PMC9785678, “Candidalysin Is the Hemolytic Factor of Candida albicans” (Toxins, 2022).)
